Assay results reported in patent US20260283153A1 (priority 2023, published 2026).

Legend:
Pythium ultimum = experiment: Pythium ultimum/liquid culture (seedling damping off); type: cell-based; conditions: Globisporangium ultimum, liquid culture, growth inhibition determined photometrically 2-3 days after application, compared to untreated control
Method: Mycelia fragments and oospores of a newly grown liquid culture of the fungus are directly mixed into nutrient broth (PDB potato dextrose broth). After placing a (DMSO) solution of test compound into a microtiter plate (96-well format), the nutrient broth containing the fungal mycelia/spore mixture is added. The test plates are incubated at 24° C. and the inhibition of growth is determined photometrically 2-3 days after application.

Phytophthora infestans = experiment: whole plant or invertebrate; type: in vivo; conditions: in Solanum lycopersicum, foliar, read-out: control of Phytophthora infestans
Plasmopara viticola = experiment: whole plant or invertebrate; type: in vivo; conditions: foliar, read-out: control of Plasmopara viticola
[1] = system: Monographella nivalis (Microdochium nivale); experiment: Monographella nivalis (Microdochium nivale)/liquid culture (foot rot cereals); type: cell-based; conditions: liquid culture, growth inhibition determined photometrically 4-5 days after application, compared to untreated control
Method: The fungicidal activity of the compounds of the invention have been tested as follows: • Monographella nivalis (Microdochium nivale)/liquid culture (foot rot cereals) Conidia of the fungus from cryogenic storage are directly mixed into nutrient broth (PDB potato dextrose broth). After placing a (DMSO) solution of test compound into a microtiter plate (96-well format), the nutrient broth containing the fungal spores is added. The test plates are incubated at 24° C. and the inhibition of growth is determined photometrically 4-5 days after application.

SMILES | inhibition of growth at 20 ppm (Pythium ultimum) [%] | pest or weed control at 200 ppm (Phytophthora infestans) [%] | pest or weed control at 200 ppm (Plasmopara viticola) [%] | inhibition of growth at 20 ppm [1] [%]
COCN(C(=O)c1cn2c(-c3ccc(NC(=O)OC)nc3)cnc2cn1)c1ccc(F)c(OC)c1 [Compound 1, methyl N-[5-[6-[(4-fluoro-3-methoxy-phenyl)-(methoxymethyl)carbamoyl]imidazo[1,2-a]pyrazin-3-yl]-2-pyridyl]carbamate] | ≥ 80 | ≥ 80 | ≥ 80 | 
COC(=O)Nc1ccc(-c2cnc3cnc(C(=O)N(CC#N)c4ccc(F)c(OC)c4)cn23)cn1 [Compound 2, methyl N-[5-[6-[cyanomethyl-(4-fluoro-3-methoxy-phenyl)carbamoyl]imidazo[1,2-a]pyrazin-3-yl]-2-pyridyl]carbamate] | ≥ 80 | ≥ 80 |  | 
COC(=O)Nc1ccc(-c2cnc3cnc(C(=O)N(CC#N)c4ccc(Cl)c(OC)c4)cn23)cn1 [Compound 3, methyl N-[5-[6-[(4-chloro-3-methoxy-phenyl)-(cyanomethyl)carbamoyl]imidazo[1,2-a]pyrazin-3-yl]-2-pyridyl]carbamate] | ≥ 80 | ≥ 80 |  | 
COC(=O)Nc1ccc(-c2cnc3cnc(C(=O)N(C)c4ccc(F)c(OC)c4)cn23)cn1 [Compound 4, methyl N-[5-[6-[(4-fluoro-3-methoxy-phenyl)-methyl-carbamoyl]imidazo[1,2-a]pyrazin-3-yl]-2-pyridyl]carbamate] | ≥ 80 | ≥ 80 |  | 
CON(C)C(=O)Nc1ccc(-c2cnc3cnc(C(=O)N(C)c4ccc(Cl)cc4)cn23)cc1 [Compound 5, N-(4-chlorophenyl)-3-[4-[[methoxy(methyl)carbamoyl]amino]phenyl]-N-methyl-imidazo[1,2-a]pyrazine-6-carboxamide] |  |  |  | ≥ 80
CNC(=O)Nc1ccc(-c2cnc3cnc(C(=O)N(C)c4ccc(Cl)cc4)cn23)cc1 [Compound 6, N-(4-chlorophenyl)-N-methyl-3-[4-(methylcarbamoylamino)phenyl]imidazo[1,2-a]pyrazine-6-carboxamide] |  |  | ≥ 80 | ≥ 80
CCOC(=O)Nc1ccc(-c2cnc3cnc(C(=O)N(C)c4ccc(Cl)cc4)cn23)cc1 [Compound 8, ethyl N-[4-[6-[(4-chlorophenyl)-methyl-carbamoyl]imidazo[1,2-a]pyrazin-3-yl]phenyl]carbamate] |  |  | ≥ 80 | ≥ 80
COC(=O)Nc1ccc(-c2cnc3cnc(C(=O)N(C)c4ccc(C#N)cc4)cn23)cc1 [Compound 9, methyl N-[4-[6-[(4-cyanophenyl)-methyl-carbamoyl]imidazo[1,2-a]pyrazin-3-yl]phenyl]carbamate] | ≥ 80 |  |  | 
COCC(=O)Nc1ccc(-c2cnc3cnc(C(=O)N(C)c4ccc(Cl)cc4)cn23)cc1 [Compound 27, N-(4-chlorophenyl)-3-[4-[(2-methoxyacetyl)amino]phenyl]-N-methyl-imidazo[1,2-a]pyrazine-6-carboxamide] | ≥ 80 |  |  | 
COC(=O)Nc1ccc(-c2cnc3cnc(C(=O)N(C)c4ccc(Cl)cc4)cn23)cc1 [Compound 28, methyl N-[4-[6-[(4-chlorophenyl)-methyl-carbamoyl]imidazo[1,2-a]pyrazin-3-yl]phenyl]carbamate] | ≥ 80 |  | ≥ 80 | ≥ 80
CC(=O)Nc1ccc(-c2cnc3cnc(C(=O)N(C)c4ccc(Br)cc4)cn23)cc1 [Compound 34, 3-(4-acetamidophenyl)-N-(4-bromophenyl)-N-methyl-imidazo[1,2-a]pyrazine-6-carboxamide] | ≥ 80 |  |  | ≥ 80
CC(=O)Nc1ccc(-c2cnc3cnc(C(=O)N(C)c4ccc(C#N)cc4)cn23)cc1 [Compound 36, 3-(4-acetamidophenyl)-N-(4-cyanophenyl)-N-methyl-imidazo[1,2-a]pyrazine-6-carboxamide] |  |  | ≥ 80 | 
CC(=O)Nc1ccc(-c2cnc3cnc(C(=O)N(C)c4ccc(Cl)cc4)cn23)cc1 [Compound 37, 3-(4-acetamidophenyl)-N-(4-chlorophenyl)-N-methyl-imidazo[1,2-a]pyrazine-6-carboxamide] |  | ≥ 80 | ≥ 80 | 
CC(=O)Nc1ccc(-c2cnc3cnc(C(=O)N(C)c4ccc(F)cc4)cn23)cc1 [Compound 38, 3-(4-acetamidophenyl)-N-(4-fluorophenyl)-N-methyl-imidazo[1,2-a]pyrazine-6-carboxamide] | ≥ 80 |  |  | 
COC(=O)Nc1ccc(-c2cnc3cnc(C(=O)N4CCCc5cc(F)ccc54)cn23)cn1 [Compound 42, methyl N-[5-[6-(6-fluoro-3,4-dihydro-2H-quinoline-1-carbonyl)imidazo[1,2-a]pyrazin-3-yl]-2-pyridyl]carbamate] |  | ≥ 80 |  | 
COc1cc(N(C)C(=O)c2cn3c(-c4ccc(NC(=O)C5CC5)cc4)cnc3cn2)ccc1F [Compound 46, 3-[4-(cyclopropanecarbonylamino)phenyl]-N-(4-fluoro-3-methoxy-phenyl)-N-methyl-imidazo[1,2-a]pyrazine-6-carboxamide] |  | ≥ 80 |  | 
COc1cc(N(C)C(=O)c2cn3c(-c4ccc(NC(=O)C5CC5)nc4)cnc3cn2)ccc1F [Compound 50, 3-[6-(cyclopropanecarbonylamino)-3-pyridyl]-N-(4-fluoro-3-methoxy-phenyl)-N-methyl-imidazo[1,2-a]pyrazine-6-carboxamide] |  | ≥ 80 |  | 
COc1cc(N(C)C(=O)c2cn3c(-c4ccc(NC(C)=O)cc4)cnc3cn2)ccc1F [Compound 51, 3-(4-acetamidophenyl)-N-(4-fluoro-3-methoxy-phenyl)-N-methyl-imidazo[1,2-a]pyrazine-6-carboxamide] |  | ≥ 80 |  | 
COC(=O)Nc1ccc(-c2cnc3cnc(C(=O)N4CCN(C)c5cc(F)ccc54)cn23)cn1 [Compound 53, methyl N-[5-[6-(6-fluoro-4-methyl-2,3-dihydroquinoxaline-1-carbonyl)imidazo[1,2-a]pyrazin-3-yl]-2-pyridyl]carbamate] | ≥ 80 |  |  | 
COCN(C(=O)c1cn2c(-c3ccc(NC(=O)OC)nc3)cnc2cn1)c1ccc(C#N)c(OC)c1 [Compound 55, methyl N-[5-[6-[(4-cyano-3-methoxy-phenyl)-(methoxymethyl)carbamoyl]imidazo[1,2-a]pyrazin-3-yl]-2-pyridyl]carbamate] | ≥ 80 |  | ≥ 80 | 
COC(=O)Nc1ccc(-c2cnc3cnc(C(=O)N(C)c4ccc(F)c(OC)c4)cn23)cc1 [Compound 58, methyl N-[4-[6-[(4-fluoro-3-methoxy-phenyl)-methyl-carbamoyl]imidazo[1,2-a]pyrazin-3-yl]phenyl]carbamate] | ≥ 80 | ≥ 80 | ≥ 80 | 
COC(=O)Nc1ccc(-c2cnc3cnc(C(=O)N(C)c4ccc(C#N)c(OC)c4)cn23)cc1 [Compound 59, methyl N-[4-[6-[(4-cyano-3-methoxy-phenyl)-methyl-carbamoyl]imidazo[1,2-a]pyrazin-3-yl]phenyl]carbamate] | ≥ 80 | ≥ 80 | ≥ 80 | 
